# Measured values published in ChEMBL document CHEMBL1138447, “New Rev-export inhibitor from Alpinia galanga and structure-activity relationship” (Bioorg Med Chem Lett, 2009).
# Active and inactive are the calls of the source. No cut-off for these calls is given here.
# Tested on: HeLa
# Experiment: Inhibition of hemagglutininin-tagged HIV1 Rev protein nuclear export in human HeLa cells assessed as localization at 5 uM by indirect fluorescent antibody technique
# Format: cell-based
# Details: Human immunodeficiency virus 1
compound,measurement,value
C=C[C@H](OC(C)=O)c1ccc(OC(C)=O)cc1,Activity,Active
